Results as given in patent US20250152583A1, “AMILORIDE FOR USE IN THE TOPICAL TREATMENT OF SOMATOSENSORY IMPAIRMENTS” (ASSISTANCE PUBLIQUE - HOPITAUX DE PARIS, priority 2022, published 2025).

Legend:
Type in all cases: in vivo, human
[1] = tested on: patients with somatosensory impairments; assay: Summary statement: patients treated with a topical composition of amiloride
[2] = tested on: patient with peripheral sensory neuropathy of feet and hands with hypoesthesia and proprioceptive disorders; assay: Case report: amiloride cream on hypoesthetic areas, neuropathy induced by Ado-trastuzumab emtansine (T-DM1); conditions: cream of amiloride 5%, applied locally to hypoesthetic areas twice a day
Text: A patient received Ado-trastuzumab emtansine (T-DM1), the first HER2-targeted antibody-drug conjugate to get the approval of the Food and Drug Administration (FDA), for the treatment of their metastatic HER2-positive breast cancer.
For more than 2 years, they had repeated falls due to loss of feeling in their feet, cuts on their hands, unnoticed burns, “splinters in the skin following their gardening activities” with infection in the aftermath because they had not realized it.
They complained of often dropping objects held in their hands and of no longer being able to sew due to the impossibility of holding a fine needle.
They were treated with a cream of amiloride 5% applied locally to the hypoesthetic areas twice a day.

[3] = tested on: patient with hypoesthesia and proprioceptive disorders; assay: Case report: amiloride cream on hypoesthetic areas, hypoesthesia and proprioceptive disorders after bortezomib; conditions: cream of amiloride 10%, twice a day, after 1 month of use
Experimental: A patient suffered from hypoesthesia and proprioceptive disorders with difficulty gripping the foot on the ground, impression of walking on cotton and complained of the impression of having a permanently rolled sock under the feet in addition to a sensation of having edematous toes since they received a treatment with bortezomib in 2016 for treating their myeloma. They were treated with a cream of amiloride 10% applied locally to the hypoesthetic areas twice a day.

[4] = tested on: patient with hypoesthesia with lost sensations in feet and fingertips; assay: Case report: amiloride cream, hypoesthesia after oxaliplatine
Experimental: A patient suffering from colon cancer was treated for 4 months with oxaliplatine in December 2019. They developed hypoesthesia with lost sensations in feet and in the fingertips of both hands and complained of having the impression of a permanently “rolled sock” under the feet. They were treated with a cream of amiloride 10% applied twice a day during one month and they noticed an improvement in the feeling of the right foot “rolled sock” (4/10 vs 8/10 before this treatment), a little less on the left foot (6/10 vs 8/10).

Which results are given for `NC(N)=NC(=O)c1nc(Cl)c(N)nc1N` [amiloride, 3,5-diamino-6-chloro-N-(diaminomethylidene) pyrazine-2-carboxamide]?
sensations in insensitive body areas, proprioception and mechanical allodynia [1]: able to recover sensations in insensitive body areas and a correct proprioception and noted the disappearance of mechanical allodynia; sensation of hands and feet [2]: regained the sensation of their hands and feet; impression of having a permanently rolled sock under the feet [3]: disappeared; impression of walking on cotton [3]: disappeared; sensation of edema of the toes [3]: has disappeared; feeling of hot and cold on the soles of the feet ([3]; patient): feels better hot and cold on the soles of their feet; sensation "rolled sock" ([4]; amiloride concentration in the cream increased to 15%): further decrease the sensation “rolled sock” even on the left foot; sensitivity in the fingertips of both hands ([4]; cream of amiloride 10%, twice a day during one month): regained the sensitivity in the fingertips of both hands; feeling of "rolled sock", left foot ([4]; cream of amiloride 10%, twice a day during one month, 8/10 before treatment): 6/10; feeling of "rolled sock", right foot ([4]; cream of amiloride 10%, twice a day during one month, 8/10 before treatment, patient): 4/10
